From article PMC12797497, “Si-Ni-San improves the deposition of lipid droplets in MAFLD through modulating the FXR-GPAT4 axis” (Chinese Medicine, 2026)
“Also recorded” adds a separate entry of the source.

Assays:
FXR protein = molecular target: T1, FXR protein (Homo sapiens, UniProt Q96RI1); test: Surface plasmon resonance (SPR), FXR immobilized on CM5 chip; format: binding; conditions: SPR steady-state affinity fit
T1 sequence (Q96RI1 1-486): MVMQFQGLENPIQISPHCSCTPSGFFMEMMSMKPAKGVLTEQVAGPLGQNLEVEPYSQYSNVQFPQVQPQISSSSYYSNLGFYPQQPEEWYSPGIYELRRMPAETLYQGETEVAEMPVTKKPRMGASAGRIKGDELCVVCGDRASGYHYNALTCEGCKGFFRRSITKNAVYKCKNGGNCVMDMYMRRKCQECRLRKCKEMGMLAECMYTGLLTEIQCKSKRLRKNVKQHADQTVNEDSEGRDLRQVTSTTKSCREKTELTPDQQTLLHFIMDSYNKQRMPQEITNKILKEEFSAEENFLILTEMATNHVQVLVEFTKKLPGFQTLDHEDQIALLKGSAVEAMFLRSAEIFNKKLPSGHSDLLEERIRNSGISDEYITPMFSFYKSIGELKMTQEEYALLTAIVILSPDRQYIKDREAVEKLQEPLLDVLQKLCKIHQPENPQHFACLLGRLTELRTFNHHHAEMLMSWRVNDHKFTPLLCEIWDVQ
Method: SPR analysis was performed by a Biacore S200 system (Cytiva, USA) equipped with a CM5 sensor chip. The FXR protein was immobilized on the chip via the standard amine coupling protocol, with the protein dissolved in a sodium acetate buffer at pH 4.5 and a concentration of 10 mM. […] Equilibrium dissociation constants (KD) were determined by fitting the response curves using the steady-state affinity model available in the Biacore S200 Evaluation Software.

[1] = system: T2DM and high-risk obese individuals; conditions: cited from earlier work
[2] = system: oleic acid-induced HepG2 cells; test: ORO staining of lipid droplets in oleic acid-induced HepG2 cells; format: cell-based, human; conditions: HepG2, OA 24 h; 15% SNS-containing serum vs NS serum, or OCA 1 μM
Method: (§1) The HepG2 cell line was purchased from the American Type Culture Collection (Manassas, USA) and cultured in RPMI 1640 medium (Solarbio, China) with 10% fetal bovine serum (Gibco, USA) in an atmosphere with 5% CO2 and 100% humidity at 37 ℃. Oleic acid (OA) was purchased from Shanghai Macklin Biochemical Co., Ltd. (C11391320, Macklin, China). […] Cells were inoculated into 6-well plates and 96-well plates and treated with OA solution and SNS/NS-containing serum for 24 h.
In vitro, the HepG2 cell cells were firstly seeded in 6-well plates (3 × 10^5 cells/well). After the cells were washed with PBS, ORO fixative was added to each well for 20–30 min, and 60% isopropyl alcohol was added to each well for 5 min. Then, ORO staining solution was used to stain the cells for 10–20 min. After the cells were washed with PBS, hematoxylin staining solution was used to re-stain the nucleus. Then, we added ORO buffer for 1 min. Finally, we used glycerin gelatin to seal the tablets. The changes in LDs were measured with Image Pro Plus v6.0 software (Media Cybemetic, USA).

LDAH = LDAH protein level in liver of MAFLD mice (western blot); format: in vivo, C57BL/6N mice; conditions: vs HFD group
MAFLD mice = test: HFD-induced MAFLD mouse model: body/liver weight, histology, serum biochemistry, hepatic TBA; format: in vivo, C57BL/6N mice; conditions: SNS 5.2 g/kg/d or OCA 10 mg/kg/d orally for 2 weeks
Source text: (§2) A standard diet was fed to the NC group, while HFD (D12451, Huanyu Hekang Biotechnology, China) was fed to the other four groups for 12 weeks. […] During this period, mice in the NC group and HFD group were given isovolumetric distilled water respectively.
Serum samples were collected to measure the content of TG, total cholesterol (TC), alanine aminotransferase (ALT), aspartate aminotransferase (AST), high-density lipoprotein cholesterol (HDL-C), and low-density lipoprotein cholesterol (LDL-C). The Reado/Changchun Huili kit was used for the assay, measured by a fully automatic biochemistry analyzer.
The TBA content in liver tissue was detected by a TBA assay kit (E003-2-1, Nanjing Jiancheng Bioengineering Institute, China). According to the kit instruction manual, the liver tissues were subjected to lysis, after which the supernatant was collected and added to a 96-well plate. Blank controls and standard controls were set up. Subsequently, 180 μL of Reagent 1 was added, followed by gentle shaking to mix thoroughly, and incubation at 37 °C for 5 min. After that, 60 μL of Reagent 2 was added, mixed well by gentle shaking, and incubated at 37 °C for 1 min. The absorbance (A0) was measured at a wavelength of 405 nm using a microplate reader. Another incubation at 37 °C for 3 min was conducted, and then the absorbance (A1) was measured again. The ΔA value was calculated as ΔA = A1−A0, which represents the TBA content in the liver tissues.
Liver tissue from each group of mice was fixed in 4% formalin, embedded in paraffin, and prepared as paraffin tissue sections with a thickness of 5 μm. The sections were dewaxed and rehydrated, subsequently subjected to H&E staining, and finally examined under a microscope (Leica DM2500, Germany) for the observation of LDs.
Lipid accumulation in vivo was assessed by oil red O (ORO) staining (G1261, Solarbio, China). For liver tissue, frozen tissue sections were prepared at a thickness of 10 μm. After fixation in formalin, the sections were washed in 60% isopropanol and then stained with freshly prepared ORO working solution for 15 min. Following rinsing with 60% isopropanol, the sections were examined under a microscope.

GPAT4 [3] = test: GPAT4 protein expression in liver of MAFLD mice (western blot, IHC); format: in vivo, C57BL/6N mice; conditions: vs HFD group
Method: as §2
Total protein was extracted using a protein extraction kit (PC201Plus, Epizyme). Then, the protein concentration was measured using a BCA kit (PC0020, Solarbio). The 50 μg of the total protein samples were loaded onto an SDS-PAGE gel. Following electrophoresis, the protein was transferred into polyvinylidene fluoride (PVDF) membranes. Whereafter, the membranes were first blocked with 5% nonfat dry milk in TBST and incubated with primary antibodies against FXR (bs-12867R, Bioss, 1:1000), GPAT4 (bs-15587R, Bioss, China, 1:1000), P62 (380612-50, Zenbio, China, 1:1000), HSL (344379-50, Zenbio, China, 1:1000), MAGL (PAD223Hu01, Cloud-Clone Corp, China, 1:1000), Beclin1 (BS-1353R, Bioss, China, 1:1000), ATGL (R389129-50, Bioss, China, 1:1000), LC3Ⅰ/Ⅱ (ABC929, Merck, USA, 1:1000), β-actin (bs-0061R, Bioss, China, 1:5000) and GAPDH (GB11002-100, Servicebio, China, 1:5000). […] Finally, the immune bands were detected using an ECL detection kit (sb-wb012, Shanghai Shenger Biotechnology Co., Ltd, China). The average gray value was quantified using Image J software. […]

FXR [4] = test: FXR protein expression in liver and colon of MAFLD mice (western blot, IHC); format: in vivo, C57BL/6N mice
Method: as §2
(§3) Total protein was extracted using a protein extraction kit (PC201Plus, Epizyme). Then, the protein concentration was measured using a BCA kit (PC0020, Solarbio). The 50 μg of the total protein samples were loaded onto an SDS-PAGE gel. Following electrophoresis, the protein was transferred into polyvinylidene fluoride (PVDF) membranes. Whereafter, the membranes were first blocked with 5% nonfat dry milk in TBST and incubated with primary antibodies against FXR (bs-12867R, Bioss, 1:1000), GPAT4 (bs-15587R, Bioss, China, 1:1000), P62 (380612-50, Zenbio, China, 1:1000), HSL (344379-50, Zenbio, China, 1:1000), MAGL (PAD223Hu01, Cloud-Clone Corp, China, 1:1000), Beclin1 (BS-1353R, Bioss, China, 1:1000), ATGL (R389129-50, Bioss, China, 1:1000), LC3Ⅰ/Ⅱ (ABC929, Merck, USA, 1:1000), β-actin (bs-0061R, Bioss, China, 1:5000) and GAPDH (GB11002-100, Servicebio, China, 1:5000). After 12 h of incubation at 4 °C, the blots were proceeded with HRP-conjugated secondary antibody. Finally, the immune bands were detected using an ECL detection kit (sb-wb012, Shanghai Shenger Biotechnology Co., Ltd, China). The average gray value was quantified using Image J software.
The paraffin sections of liver were performed dewaxing followed by antigen retrieval, then add FXR primary antibody (bs-12867R, Bioss, 1:200) and GPAT4 primary antibody (bs-1924R, Bioss, 1:200), and incubate overnight at 4 °C. After the diaminobenzidine (DAB) enhanced staining, the sections were mounted with neutral gum. Finally, the images were observed and captured via a Leica DM4000B light microscope (Germany).

FXR [5] = test: FXR expression in oleic acid-induced HepG2 cells (western blot); format: cell-based, human; conditions: HepG2, OA 24 h; 15% SNS-containing serum or OCA 1 μM
Method: as §1
(§4) Total protein was extracted using a protein extraction kit (PC201Plus, Epizyme). Then, the protein concentration was measured using a BCA kit (PC0020, Solarbio). The 50 μg of the total protein samples were loaded onto an SDS-PAGE gel. Following electrophoresis, the protein was transferred into polyvinylidene fluoride (PVDF) membranes. […] Finally, the immune bands were detected using an ECL detection kit (sb-wb012, Shanghai Shenger Biotechnology Co., Ltd, China). The average gray value was quantified using Image J software.

GPAT4 [6] = test: GPAT4 expression in oleic acid-induced HepG2 cells (western blot); format: cell-based, human; conditions: HepG2, OA 24 h; 15% SNS-containing serum or OCA 1 μM
Method: as §1, §4

[7] = system: HSL, ATGL, MAGL, P62, Beclin1, LC3Ⅰ/Ⅱ; test: Lipolysis- and lipophagy-related protein expression in liver of MAFLD mice (western blot); format: in vivo, C57BL/6N mice; conditions: vs HFD group
Method: as §2, §3

NASH = system: NASH; design: method as in PMID 38324483; conditions: MAESTRO-NASH Phase III trial; cited from earlier work

Work on `COc1cc(-c2oc3cc(O)cc(O)c3c(=O)c2O)ccc1O` [Isorhamnetin] yielded an Rmax (FXR protein) of 20.3 RU.

In the case of Semaglutide, the “reduction in major adverse cardiovascular events” value ([1]; SUSTAIN 6 and SELECT, T2DM and high-risk obese individuals) is listed as 18–20%, the weight loss [1] is listed as “at least 10%” and the safety profile ([1]; human, in vivo) is listed as “common gastrointestinal reactions and infrequent serious adverse events”.

In the case of `CC[C@H]1[C@@H](O)[C@@H]2[C@H](CC[C@]3(C)[C@@H]([C@H](C)CCC(=O)O)CC[C@@H]23)[C@@]2(C)CC[C@@H](O)C[C@@H]12` [OCA, Obeticholic acid], the “intracellular LDs accumulation (ORO staining)” value [2] is reported as “reduced LDs deposition in cells”, the “protein level of LDAH” value (LDAH) is reported as “downregulated LDAH” and the “liver coefficient (liver weight/body weight)” value (MAFLD mice) is reported as “restored to normal levels”. The “body weight at week 12” value (MAFLD mice; vs HFD group) was “significantly decreased body weight”, the “hepatic TBA level” value (MAFLD mice; vs HFD group) was “reduced TBA levels” and the “liver LDs deposition (H&E and ORO staining)” value (MAFLD mice; vs HFD group) was “significantly reduced LDs compared to the HFD group”. The liver weight (MAFLD mice; vs HFD group) was “significant reduction in liver weights”, the “serum ALT” value (MAFLD mice; vs HFD group) was “effectively reduced liver injury induced by HFD” and the “serum AST” value (MAFLD mice; vs HFD group) was “effectively reduced liver injury induced by HFD”. The “serum LDL-C” value (MAFLD mice; vs HFD group) was “reduced following SNS and OCA treatment”, the “serum TC” value (MAFLD mice; vs HFD group) was “reduced following SNS and OCA treatment” and the “serum TG” value (MAFLD mice; vs HFD group) was “reduced following SNS and OCA treatment”. The “positive localization of GPAT4 in liver tissues” value (GPAT4 [3]; IHC) was “reduced the positive localization of GPAT4 in liver tissues”, the “GPAT4 expression in liver” value (GPAT4 [3]; western blot) was “inhibited GPAT4 expressions” and the “positive localization of FXR in liver tissues” value (FXR [4]; IHC, liver) was “increased the positive localization of FXR in liver tissues”. For the same compound, the “FXR expression in the colon” value (FXR [4]; western blot, colon, vs HFD group) was “elevated colonic FXR expression”, the “hepatic FXR expression” value (FXR [4]; western blot, liver, vs HFD group) was “activated its expression; also recorded: activated FXR” and the Rmax (FXR protein) was 32.0 RU. For the same compound, the “FXR expression in cells” value (FXR [5]) was “increased FXR expression”, the “GPAT4 expression in cells” value (GPAT4 [6]) was “inhibited GPAT4 expression in cells” and the ATGL expression [7] was “increased HSL and ATGL expression”. For the same compound, the Beclin1 expression [7] was “activated Beclin1”, the HSL expression [7] was “increased HSL and ATGL expression” and the MAGL expression [7] was “decreased MAGL expression”. The P62 expression [7] was “suppressed P62 expression”.

In the case of `CC(C)c1cc(Oc2c(Cl)cc(-n3nc(C#N)c(=O)[nH]c3=O)cc2Cl)n[nH]c1=O` [Resmetirom], the LDL-C decrease (NASH) is listed as 13–16%, the NASH resolution (NASH) is listed as 26–30% and the fibrosis improvement (NASH) is listed as 24–26%. For the same compound, the “tolerability / adverse events” value (NASH) was “well-tolerated, with primarily mild diarrhea and nausea, and a serious adverse event rate comparable to placebo”.

`COc1ccc(-c2cc(=O)c3c(OC)c(OC)c(OC)c(OC)c3o2)cc1OC` [Nobiletin] gave an Rmax (FXR protein) of 210.1 RU.

With `COc1ccc([C@@H]2CC(=O)c3c(O)cc(O[C@@H]4O[C@H](CO)[C@@H](O)[C@H](O)[C@H]4O[C@@H]4O[C@@H](C)[C@H](O)[C@@H](O)[C@H]4O)cc3O2)cc1O` [Neohesperidin] the Rmax (FXR protein) was 181.5 RU.

`O=C1C[C@@H](c2ccc(O[C@@H]3O[C@H](CO)[C@@H](O)[C@H](O)[C@H]3O)cc2)Oc2cc(O)ccc21` [Liquiritin] showed an Rmax (FXR protein) of 12.1 RU.

`COc1ccc([C@@H]2CC(=O)c3c(O)cc(O[C@@H]4O[C@H](CO[C@@H]5O[C@@H](C)[C@H](O)[C@@H](O)[C@H]5O)[C@@H](O)[C@H](O)[C@H]4O)cc3O2)cc1O` [Hesperidin] gave an Rmax (FXR protein) of 49.9 RU.
